# From paper PMC12040169 (PLOS Biology, 2025)
# Experiment: in vitro
# Conditions: human, hela cells, % viability
row,SMILES,"viability at 28.5 h, 10 µM [%]"
1,COCCN(Cc1cnn(C)c1)C(=O)c1nc2ccccn2c1F [CBK306892],100
2,Cc1ncsc1CCN(C)C(=O)Cn1nc(C)c2ccccc2c1=O [CBK306893],86.3
3,Cn1ccnc1CNc1nc(C(C)(C)C)nc2c1cnn2C [CBK306894],100
4,Cc1nc(C2CC(=O)N(Cc3ccccn3)C2)n(-c2ccccc2F)n1 (centres unmarked) [CBK306895],89.6
5,COc1ccc2c(c1)c(C(=O)N1CC(C)(C)C(C)(O)C1)c(C)n2C (centres unmarked) [CBK306896],77.2
6,CC(C)N(C(=O)c1ccccc1-c1cnc2cccnn12)C(C)C [CBK306900],97.8
7,COCCn1ccnc1C1CCN(C(=O)C(O)c2cccc(Cl)c2)CC1 (centres unmarked) [CBK306901],99.8
8,CC(C)n1ccnc1CN1CCn2nc(CNc3cnccn3)cc2C1 [CBK306902],98.7
9,Cc1cc(C)n(CCCC(=O)N2CCC3(CC2)CC(=O)N(C)C3)n1 [CBK306905],90.5
10,Cc1nnc(SCC(=O)N2CCCN(c3ccc(F)cc3)CC2)s1 [CBK306908],88.7
11,COCCn1cnnc1CN(C)C(=O)NCc1cc2ccccc2s1 [CBK306911],98.6
12,CCCN1CC(NC(=O)c2cc(COc3cccc(F)c3)[nH]n2)CC1=O (centres unmarked) [CBK306912],82.2
13,Cc1cccnc1CN(C)C(=O)c1cccc(NC(=O)C2CCCC2)c1 [CBK306913],82.9
14,CC(=O)Oc1c(C)cc(CN(C)C(C)c2ccncc2)cc1C (centres unmarked) [CBK306915],73.2
15,CCN(C(=O)Nc1ccc(-c2ccco2)cc1)C1CCOCC1 [CBK306916],95.8
16,COC[C@H](C)Nc1ccc(C(=O)N2CCC(N3CCOCC3)CC2)cn1 [CBK306917],84.8
17,Cc1nn2cc(CNC(=O)CN3CCOc4ccccc4C3)nc2s1 [CBK306921],89
18,CCn1cc(Cl)c(C(=O)NC2CCN(c3cnccn3)CC2)n1 [CBK306922],95.5
19,CCc1ocnc1C(=O)NC1CCCN(Cc2ccccc2F)C1 (centres unmarked) [CBK306924],104
20,CC(C)CNC(=O)c1cccc(NC(=O)N2CCC2c2cccs2)c1 (centres unmarked) [CBK306927],99.9
21,CCc1nccn1CC(=O)N(C)C1CCCN(Cc2ccccc2F)C1 (centres unmarked) [CBK306928],102
22,COc1cccc(OCC2CCCN(C(=O)CCc3cnn(C)c3)C2)c1 (centres unmarked) [CBK306931],85
23,CC(=O)N1CCc2nc(CC3CC3)nc(NCCn3ccnn3)c2CC1 [CBK306933],94.7

row,SMILES,"viability at 28.5 h, 10 µM [%]"
1,COCCN(Cc1ccccc1C)C(=O)C1CCc2nn(C)c(=O)n2C1 (centres unmarked) [CBK306934],80.8
2,CCCCC(c1cccnc1)N(C)C(=O)Cn1ccccc1=O (centres unmarked) [CBK306936],104
3,COc1cccc2ncn(Cc3n[nH]c(C)n3)c(=O)c12 [CBK306938],89.7
4,COc1c(C)cc(-c2[nH]c(C)nc2C)cc1C [CBK306941],86.6
5,CC1(C)Cc2nc(N3CCOCC3)ncc2C(NC(=O)C2CCC2)C1 (centres unmarked) [CBK306943],83.8
6,CCCC(=O)NCC1Cc2cc(F)cc(-c3ccc(C(C)=O)s3)c2O1 (centres unmarked) [CBK306945],90.3
7,CCN1CCC2(CCC1=O)CN(Cc1cncn1CC(C)C)CCN2C (centres unmarked) [CBK306947],96
8,Cc1cccnc1CN1CCN(C(=O)NCCSc2nncn2C)CC1 [CBK306949],89.9
9,CN1CC2(CCCN(Cc3noc(-c4ccccc4)n3)C2)OC1=O (centres unmarked) [CBK306952],93
10,Cc1nc(N2CCCCC2)ncc1C(=O)NCCSc1nncn1C [CBK306955],81.1
11,Cn1c(O)c(CCNc2cc([C@H]3C[C@@H](O)C3)nc(N)n2)cnc1=O [CBK306956],104
12,O=c1cc(N2CCN(CC3CCOC3)CC2)c(-c2ccccc2)n[nH]1 (centres unmarked) [CBK306957],91.5
13,Cc1cccc(C2CCCN(C(=O)Nc3cnn(C)c3)C2)c1 (centres unmarked) [CBK306961],102
14,Cc1nc(CCCn2cnc3nccnc3c2=O)sc1C [CBK306962],103
15,Cc1nc(N)nc(NCC(O)CN(C)C)c1Cl (centres unmarked) [CBK306963],81.7
16,COCCN(Cc1ccncc1)C(=O)c1cnc2ccnn2c1C [CBK306965],92.3
17,Cc1cc(C)c2nonc2c1S(=O)(=O)NCCN1CCCCC1CO (centres unmarked) [CBK306966],94.8
18,CCN1CCC2(CCC1=O)CN(Cc1noc(CC(C)C)n1)CCN2C (centres unmarked) [CBK306971],90.5
19,Cn1cc(CCNC(=O)N(Cc2ccccn2)CC2CCCO2)cn1 (centres unmarked) [CBK306973],99.2
20,Nc1nc(CCC(=O)N2CCCC(c3cc(O)ncn3)C2)cs1 (centres unmarked) [CBK306976],89.5
21,CC(C)(O)C1CCCN(C(=O)c2coc(COc3cccc(F)c3)n2)C1 (centres unmarked) [CBK306977],77.4
22,CC1(C)Cc2nc(N3CCOCC3)ncc2C(NC(=O)NC(C)(C)C)C1 (centres unmarked) [CBK306978],101
23,O=C(c1cn2cc(-c3cccs3)n(CC3CC3)c(=O)c2n1)N1CC(O)C1 [CBK306979],97.4

row,SMILES,"viability at 28.5 h, 10 µM [%]"
1,c1cnc(NCc2cc3n(n2)CCN(CC2CCCNC2)C3)nc1 (centres unmarked) [CBK306981],102
2,Cn1ccnc1CN1CCC2(CC1)CC(C(=O)O)N(C(=O)C1CC1)C2 (centres unmarked) [CBK306986],88.2
3,COCC1(C(=O)N(C)Cc2nnc(-c3ccccc3)o2)CCC1 [CBK306987],109
4,Cc1cc(O)n2nc(CC(=O)NCc3nnc4n3CCCCC4)nc2n1 [CBK306989],103
5,CCN1CCN(Cc2cc(Cl)ccc2OCCCn2ccnc2)CC1 [CBK306990],83.2
6,Cc1nc2c(c(=O)n1C)CN(Cc1cc(=O)n3cccc(O)c3n1)C2 [CBK306991],78.8
7,Cc1nc(CCC(=O)N2Cc3cnn(Cc4ccc(F)cc4)c3C2)n[nH]1 [CBK306993],109
8,O=C(NCCCn1cccc1)N1CCN(Cc2ccc(F)cc2)CC1 [CBK306994],107
9,CCN1CCCC(CNS(=O)(=O)c2cc(-n3cccn3)ccc2OC)C1 (centres unmarked) [CBK306997],85.3
10,Cc1ccc2nc(N3CCCC(O)C3)c(CN3CCSCC3)cc2c1 (centres unmarked) [CBK307000],94.7
11,CCC1(C)CC(=O)c2cc(NC(=O)N(CCO)CCO)ccc2O1 (centres unmarked) [CBK307003],116
12,Cc1cc(NCC2(CO)CCOCC2)nc(N2CCCC2)n1 [CBK307005],85.8
13,CC(NC(=O)C1(Cn2ccnc2)CC1)c1ccccc1-n1cccn1 (centres unmarked) [CBK307006],94.3
14,CC1(C#N)CCCN(Cc2c[nH]nc2C(=O)O)C1 (centres unmarked) [CBK307010],80.1
15,Cn1cc(C(Nc2cccc(C#N)n2)[C@H]2C[C@H](O)C2)cn1 (some centres unmarked) [CBK307011],105
16,CCOC(=O)C1(Cc2ccc(F)cc2F)CCCN(C(=O)CC)C1 (centres unmarked) [CBK307012],92.7
17,CCOc1ccc(Cl)cc1CN(C)C(=O)NCC(c1ccco1)N(C)C (centres unmarked) [CBK307013],88
18,COCCc1nc(CN(C)C)n(Cc2ccccc2C)n1 [CBK307014],87.8
19,COc1nc2ccn(CCNC(=O)C(C)C)c(=O)c2cc1C#N [CBK307015],95.8
20,Cc1ccc2nc(N3CCCC(O)C3)c(CN3CCC(F)CC3)cc2c1 (centres unmarked) [CBK307016],89.1
21,CCN1CC2(CCC1=O)CCN(c1ccnc(OC)c1C#N)CC2 [CBK307018],95
22,Nc1nc(CCC(=O)N2Cc3cnn(Cc4ccc(F)cc4)c3C2)cs1 [CBK307019],99.6
23,Cc1cccc(OCC2CCCN(C(=O)c3cn(C)cn3)C2)c1 (centres unmarked) [CBK307021],83.4

row,SMILES,"viability at 28.5 h, 10 µM [%]"
1,Cc1cc2nc(C(=O)NCCCn3ccnc3C(C)C)cc(C)n2n1 [CBK307022],90.5
2,Cn1nc(NC(=O)Cc2ccsc2)c2c(N3CCOCC3)cccc21 [CBK307023],109
3,CN1CCC(Cc2nc(-c3ccc(Cl)s3)n(CCO)n2)CC1 [CBK307025],100
4,Cc1ccn2c(F)c(C(=O)N3CCCCC3CN3CCOCC3)nc2c1 (centres unmarked) [CBK307028],82
5,O=C(CCn1cnnn1)N1C[C@H]2CC[C@@H]1CN(Cc1cccnc1)C2 [CBK307029],88.9
6,Cc1cccc(=O)n1CCCNc1cc(C2CCOC2)nc(N)n1 (centres unmarked) [CBK307030],81.9
7,CCCNC(=O)N1CCCC(Cc2ccc(F)cc2F)(C(=O)OCC)C1 (centres unmarked) [CBK307031],94.2
8,Cn1c(N2CCOCC2)nc2cc(C(=O)NCCn3cccn3)ccc21 [CBK307033],87.5
9,Cc1cc(-c2cn3cc(C(=O)NCCCCO)nc3c(=O)n2C)c(C)o1 [CBK307037],106
10,Cc1cc(-c2cn3cc(C(=O)N4CCCC4C)nc3c(=O)n2C)c(C)o1 (centres unmarked) [CBK307038],84.8
11,CCNC(=O)C1CCN(Cc2nc(-c3cc(OC)ccc3F)oc2C)C1 (centres unmarked) [CBK307040],98.4
12,CC(=O)Nc1ccc(CNC(=O)CN(C)Cc2cc(C)on2)cc1 [CBK307042],82.4
13,Cc1nn2c(=O)[nH]ncc2c1-c1ccccc1C(=O)N(C(C)C)C(C)C [CBK307043],109
14,Nc1nonc1-n1nncc1CN1CCCCC1 [CBK307045],86.9
15,CCC(NC(=O)C1(Cn2ccnc2)CC1)c1ncccc1C (centres unmarked) [CBK307046],119
16,COc1cncc(C(NC(=O)c2ccc3[nH]nnc3c2)[C@H]2C[C@@H](O)C2)c1 (some centres unmarked) [CBK307049],108
17,CC#CC(=O)N1CCCC(Cc2ccc(F)cc2F)(C(=O)OCC)C1 (centres unmarked) [CBK307051],111
18,Cc1cc(N2CCCN(C(=O)CCCOc3ccccc3)CC2)ccn1 [CBK307052],86.6
19,CSc1ncc(C(=O)N2CCC(N3CCCC(O)C3)CC2)cn1 (centres unmarked) [CBK307055],106
20,CCOC(=O)C1CCCN(Cc2cccc(Cl)c2Cl)C1 (centres unmarked) [CBK307056],85.2
21,Cc1ncccc1OC1(C(=O)NCc2n[nH]c3c2CCC3)CCNCC1 [CBK307057],101
22,Cc1cnn(C2(C(=O)O)CCN(C(=O)c3cccc(C#N)c3)CC2)c1 [CBK307058],102
23,Cn1c(=O)n(C)c2cc(CNC(=O)COCC3CCCCO3)ccc21 (centres unmarked) [CBK307061],109
